Data: article PMC8822125, “RW-BP100-4D, a Promising Antimicrobial Candidate With Broad-Spectrum Bactericidal Activity” (Frontiers in Microbiology, 2022)
≈ marks a conversion by molar mass, not a printed value. Where “and” joins values, the source holds several entries; their conditions need not be identical. Equal entries are not always repeated. Where a SMILES comes first, the peptide text is derived from it.

How the values were obtained:
[1] = system: Escherichia coli ATCC25922
Escherichia coli O157:H7 = test: MIC/MBC, broth microdilution; type: cell-based; details: mean of three repeated experiments
S. aureus ATCC29213 = details: 1 h, mean of three
Escherichia coli 47EC = Escherichia coli 47EC (tet(X4)); mean of three repeated experiments
[2] = system: S. aureus ATCC29213 biofilm formation; details: peptide 6.25 μg/mL, 24 h, 37°C, crystal violet OD590
[3] = 100 μg/mL in PBS, 1 h
[4] = system: E. coli ATCC25922, S. aureus ATCC29213, and C. albicans ATCC10231; test: Stress stability, fold change of MIC against the three reference strains; type: cell-based; details: proteinase K 1 mg/mL, 37°C, 1 h
in vitro = details: calf serum
MAC-T cells = details: peptide 150 μg/mL, 24 h, WST-1, mean ± SD, three repeats
[5] = system: Staphylococcus aureus ATCC29213; test: MIC/MBC, broth microdilution; type: cell-based
papain = papain (Carica papaya, UniProt P00784); details: 100 μg/mL peptide, papain 1 mg/mL, 37°C, 1 h; decrease of HPLC peak area (C8, UV 220 nm)
papain, sequence (P00784 134-345): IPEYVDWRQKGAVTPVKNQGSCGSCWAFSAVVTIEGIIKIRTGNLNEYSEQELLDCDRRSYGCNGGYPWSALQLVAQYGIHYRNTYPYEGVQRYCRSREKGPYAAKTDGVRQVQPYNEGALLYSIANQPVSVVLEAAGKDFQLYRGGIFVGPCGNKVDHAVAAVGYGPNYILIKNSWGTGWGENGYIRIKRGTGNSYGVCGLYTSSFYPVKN

sheep red blood cells = sheep red blood cells in PBS, 37°C, 1 h, OD576, relative to melittin, mean ± SD, three repeats;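 note: hemolysis expressed in % from supernatant absorbance, with PBS-treated cells as 0% baseline and melittin as 100%, peptide mixed 1:1 with an 8% v/v erythrocyte suspension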
C. albicans ATCC10231 = details: 1 h, mean of three
Experimental: To evaluate the thermal and pH stability of RW-BP100-4D, 100 μL of the peptide (100 μg/mL, in PBS buffer) was incubated under different temperatures (40, 50, 60, 70, 80, 90, and 100°C, pH 7) or different pHs (2, 3, 4, 5, 6, 7, 8 and 9, 37°C) for 1 h ([Song et al., 2020]). After incubation, the pH of the peptide solutions was adjusted to 7.0 using NaOH or HCl. For protease and serum stability test, 100 μL of RW-BP100-4D (100 μg/mL) was incubated with proteinase K (1 mg/mL), trypsin (1 mg/mL), papain (1 mg/mL), or sterile calf serum at 37°C for 1 h, respectively ([Song et al., 2020]). After the treatments, the proteases and calf serum were inactivated by heating at 80°C for 30 min. The remnant activity of the treated RW-BP100-4D was evaluated by determining the MICs against E. coli ATCC25922, S. aureus ATCC29213, and C. albicans ATCC10231 using broth microdilution method. RW-BP100-4D without any treatment was used as the control and each test was conducted with three independent repeats. Moreover, degradation rate (%) was estimated as the percentage of degraded peptide calculated from the decrease of the high-performance liquid chromatography (HPLC) peak area of the native peptide. HPLC analysis was performed using the Agilent™ 1100 Series equipped with an Agilent analysis column (ZORBAX RX-C8, 2.1 mm × 150 mm, 5 μm) and an UV detector at 220 nm. Mobile phase was composed of A (H2O) and B (acetonitrile), which contained 0.065% trifluoroacetic (v/v) and 0.05% trifluoroacetic (v/v), respectively.

trypsin = test: in vitro
E. coli ATCC25922 = details: 1 h, mean of three
[6] = system: Staphylococcus aureus ATCC33591; details: Staphylococcus aureus ATCC33591 (mecA); mean of three repeated experiments
various microorganisms = test: MIC/MBC, summary statements over several strains; type: cell-based
Fusarium oxysporum LD21 = test: MIC/MBC, broth microdilution (CLSI M38); type: cell-based
[7] = system: Candida albicans ATCC10231; test: MIC/MBC, broth microdilution (CLSI M38); type: cell-based
RAW264.7 cells = details: peptide 150 μg/mL, 24 h, WST-1, mean ± SD, three repeats
[8] = Table 1, broth microdilution CLSI M100-S25, MH broth, 37°C, 18 h, three independent repeats
[9] = 100 μg/mL peptide in PBS, pH 7, 40-80 ℃, then broth microdilution
[10] = 100 μg/mL peptide in PBS, pH 7, 90 ℃
[11] = 100 μg/mL peptide in PBS, pH 7, 100 ℃
[12] = 100 μg/mL peptide with papain 1 mg/mL, 37°C, protease inactivated 80°C 30 min
[13] = 100 μg/mL peptide with sterile calf serum, 37°C, serum inactivated 80°C 30 min
[14] = 100 μg/mL peptide with trypsin 1 mg/mL, 37°C, protease inactivated 80°C 30 min
[15] = 100 μg/mL peptide, pH 2-7, 37°C, then adjusted to pH 7.0
[16] = 100 μg/mL peptide, pH 8-9, 37°C, then adjusted to pH 7.0
[17] = CLSI M38, mean of three repeated experiments
[18] = mean of three repeated experiments

CC[C@H](C)[C@H](NC(=O)[C@H](CCCNC(=N)N)NC(=O)[C@H](CCCNC(=N)N)NC(=O)[C@@H](Cc1ccccc1)NC(=O)[C@H](CC(C)C)NC(=O)[C@H](CCCNC(=N)N)NC(=O)[C@@H](N)CCCNC(=N)N)C(=O)N[C@@H](CC(C)C)C(=O)N[C@@H](CCCNC(=N)N)C(=O)N[C@@H](Cc1c[nH]c2ccccc12)C(=O)N[C@@H](CC(C)C)C(N)=O [RW-BP100-4D] (HELM PEPTIDE1{R.R.L.[dF].R.R.I.L.R.W.L.[am]}$$$$V2.0)
MBC of peptides ([1]; Escherichia coli ACTT25922, mean of three repeated experiments): 12 mg/L | MIC Escherichia coli ATCC25922 [1, 8]: 6 mg/L (≈ 3.79 µM) | MIC of peptides ([1]; Table 2, Escherichia coli ACTT25922, mean of three repeated experiments): 6 mg/L | MBC of peptides (Escherichia coli O157:H7): 6 mg/L | MIC of peptides (Escherichia coli O157:H7): 3 mg/L | MIC of RW-BP100-4D against S. aureus ATCC29213 after 40-80 ℃ (S. aureus ATCC29213; [9]): 3 mg/L | MIC of RW-BP100-4D against S. aureus ATCC29213 after 90 ℃ (S. aureus ATCC29213; [10]): 6 mg/L | MIC of RW-BP100-4D against S. aureus ATCC29213 after 100 ℃ (S. aureus ATCC29213; [11]): 25 mg/L | MIC of RW-BP100-4D against S. aureus ATCC29213 after papain (S. aureus ATCC29213; [12]): >50 mg/L | MIC of RW-BP100-4D against S. aureus ATCC29213 after calf serum (S. aureus ATCC29213; [13]): >50 mg/L | MIC of RW-BP100-4D against S. aureus ATCC29213 after trypsin (S. aureus ATCC29213; [14]): >50 mg/L | MIC of RW-BP100-4D against S. aureus ATCC29213 after pH 2-7 (S. aureus ATCC29213; [15]): 3 µg/mL | MIC of RW-BP100-4D against S. aureus ATCC29213 after pH 8-9 (S. aureus ATCC29213; [16]): 12 µg/mL | MBC of peptides (Escherichia coli 47EC): 12 mg/L | MIC of peptides (Escherichia coli 47EC): 3 mg/L and 6 mg/L | Biofilm inhibited compared with the PBS control [2]: 82.3% | Degradation, 40-80 ℃ ([3]; pH 7, 40-80 ℃, decrease of HPLC peak area (C8, UV 220 nm) of native peptide): 0% | Degradation, 90 ℃ ([3]; pH 7, 90 ℃, decrease of HPLC peak area (C8, UV 220 nm)): 56% | Degradation, 100 ℃ ([3]; pH 7, 100 ℃, decrease of HPLC peak area (C8, UV 220 nm)): 82% | MICs after treatment with proteinase K, fold of the original level [4]: 4–8 fold | metabolised at 1 h, 100 μg/mL (in vitro): > 90% | Cell survival rate, MAC-T (MAC-T cells): 92.68 ± 3.65% | MIC Staphylococcus aureus ATCC29213 [5, 8]: 3 mg/L (≈ 1.89 µM) | MIC of peptides ([5]; Table 2, Staphylococcus aureus ATCC29213, mean of three repeated experiments): 6 mg/L and 3 mg/L | Degradation, papain (papain): >90% | Hemolytic rate, 50 μg/mL (sheep red blood cells; 50 μg/mL peptide): 0.11 ± 0.19% | Hemolytic rate, 100 μg/mL (sheep red blood cells; 100 μg/mL peptide): 3.69 ± 0.01% | Hemolytic rate, 150 μg/mL (sheep red blood cells; 150 μg/mL peptide): 18.75 ± 0.42% | Hemolytic rate, 300 μg/mL (sheep red blood cells; 300 μg/mL peptide): 48.55 ± 2.53% | MIC of RW-BP100-4D against C. albicans ATCC10231 after 40-80 ℃ (C. albicans ATCC10231; [9]): 12 mg/L | MIC of RW-BP100-4D against C. albicans ATCC10231 after 90 ℃ (C. albicans ATCC10231; [10]): 25 mg/L | MIC of RW-BP100-4D against C. albicans ATCC10231 after 100 ℃ (C. albicans ATCC10231; [11]): 50 mg/L | MIC of RW-BP100-4D against C. albicans ATCC10231 after papain (C. albicans ATCC10231; [12]): >50 mg/L | MIC of RW-BP100-4D against C. albicans ATCC10231 after calf serum (C. albicans ATCC10231; [13]): >50 mg/L | MIC of RW-BP100-4D against C. albicans ATCC10231 after trypsin (C. albicans ATCC10231; [14]): >50 mg/L | MIC of RW-BP100-4D against C. albicans ATCC10231 after pH 2-7 (C. albicans ATCC10231; [15]): 12 µg/mL | MIC of RW-BP100-4D against C. albicans ATCC10231 after pH 8-9 (C. albicans ATCC10231; [16]): 25 µg/mL | metabolised at 1 h, 100 μg/mL (trypsin): > 90% | MIC of RW-BP100-4D against E. coli ATCC25922 after 40-80 ℃ (E. coli ATCC25922; [9]): 6 mg/L | MIC of RW-BP100-4D against E. coli ATCC25922 after 90 ℃ (E. coli ATCC25922; [10]): 12 mg/L | MIC of RW-BP100-4D against E. coli ATCC25922 after 100 ℃ (E. coli ATCC25922; [11]): 25 mg/L | MIC of RW-BP100-4D against E. coli ATCC25922 after papain (E. coli ATCC25922; [12]): >50 mg/L | MIC of RW-BP100-4D against E. coli ATCC25922 after calf serum (E. coli ATCC25922; [13]): >50 mg/L | MIC of RW-BP100-4D against E. coli ATCC25922 after trypsin (E. coli ATCC25922; [14]): >50 mg/L | MIC of RW-BP100-4D against E. coli ATCC25922 after pH 2-7 (E. coli ATCC25922; [15]): 6 µg/mL | MIC of RW-BP100-4D against E. coli ATCC25922 after pH 8-9 (E. coli ATCC25922; [16]): 12 µg/mL | MBC of peptides [6]: 6 mg/L | MIC of peptides [6]: 6 mg/L and 3 mg/L | MICs against the selected Gram-negative bacterial isolates (various microorganisms; E. coli, Salmonella enterica, K. pneumoniae, C. jejuni, A. baumannii, Pseudomonas spp., S. putrefaction, range over strains): 3 to 25 µg/mL | MIC against S. aureus ATCC29213 and E. coli ATCC25922 (both strains together) (various microorganisms; summary of Table 1): 3 to 12 mg/L | MIC of peptides (Fusarium oxysporum LD21; [17]): 12 mg/L | MBC of peptides (Fusarium oxysporum LD21; [18]): 25 mg/L | MIC of peptides [7, 17]: 12 mg/L | MBC of peptides [7, 18]: 25 mg/L | Cell survival rate, RAW264.7 (RAW264.7 cells): 78.02 ± 7.66%
